Assay results taken from ChEMBL document CHEMBL5226321, “Ivermectin: A Promising Therapeutic for Fighting Malaria. Current Status and Perspective” (J Med Chem, 2021).
Values joined by “and” are separate entries in the source; they are usually repeats but may differ in a detail not shown here. Equal values may be shown once.

Key:
Anopheles sp. [1] = assay: Insecticidal in Anopheles sp. infected with Plasmodium falciparum gametocytes assessed as mortality fed with compound treated bovine blood at 200 microg/kg observed within 4 days feeding at 7 days post treatment relative to control; type: functional, organism-based; conditions: dose 200.0 µg/kg, time 4.0 day
Anopheles arabiensis [2] = assay: Insecticidal in Anopheles arabiensis assessed as lethal concentration membrane-fed with compound treated bovine blood; type: functional
Anopheles gambiae [3] = assay: Insecticidal in Anopheles gambiae assessed as median lethal concentration fed with compound treated bovine blood observed after 9 days; type: functional, organism-based; conditions: time 9.0 day
Anopheles stephensi [4] = assay: Insecticidal in Anopheles stephensi assessed as lethal concentration membrane-fed with compound treated blood observed after 4 days; type: functional, organism-based; conditions: time 4.0 day
Anopheles arabiensis [5] = assay: Insecticidal in Anopheles arabiensis assessed as percentage of reduction in mortality in 3 day survivorship fed with compound treated bovine blood at 73 mg observed for 24 weeks relative to control; type: functional, organism-based
Plasmodium vivax [6] = assay: Antimalarial activity against Plasmodium vivax assessed as reduction in […] in Anopheles sp. mosquito fed with blood containing plasma isolated from compound treated human observed after 4 days relative to control; type: functional, organism-based; conditions: time 4.0 day, dose or concentration not given here
Anopheles sp. [7] = assay: In vitro Insecticidal in Anopheles sp. assessed as lethality membrane-fed with compound treated human blood at 400 microg/kg per day in presence of combination of 120 mg dihydroartemisinin, 960 mg piperaquine and 30 mg primaquine observed after 7 days; type: functional, organism-based; conditions: dose 400.0 µg/kg, time 7.0 day
Anopheles gambiae [8] = assay: Insecticidal in Anopheles gambiae assessed as mortality fed with compound treated pig plasma at 20 ng/mL observed for 10 days relative to control; type: functional, organism-based; conditions: time 10.0 day
Anopheles sp. [9] = assay: Insecticidal in Anopheles sp. assessed as mean plasma concentration causing death within 2-4 days fed with compound treated pig blood administered as a single dose at 600 microg/kg at 1 day post treatment observed within 2 to 4 days; type: functional, organism-based; conditions: dose 600.0 µg/kg, time 2-4 day, pooled result: one value given for 4 cell lines, strains, targets or settings
Anopheles stephensi [10] = assay: Insecticidal in Anopheles stephensi assessed as mortality rate membrane-fed with blood of compound treated mouse at 600 microg/kg observed within 6 days relative to control; type: functional, organism-based; conditions: dose 600.0 µg/kg, time 6.0 day
Culex quinquefasciatus [11] = assay: Insecticidal in Culex quinquefasciatus assessed as mortality rate membrane-fed with compound treated human blood at 10 to 100 microg/mL observed within 7 days relative to control; type: functional, organism-based; conditions: dose 10-100 µg/ml, time 7.0 day
Anopheles sp. [12] = assay: Insecticidal in Anopheles sp. assessed as mortality fed with treated bovine blood containing 1% of compound observed within 4 days after a blood meal on 2 days post treatment relative to control; type: functional, organism-based; conditions: time 4.0 day
Aedes albopictus = assay: Insecticidal in Aedes albopictus assessed as mortality rate membrane-fed with compound treated human blood at 10 to 100 microg/mL observed within 7 days relative to control; type: functional, organism-based; conditions: dose 10-100 µg/ml, time 7.0 day
Anopheles arabiensis [13] = assay: Insecticidal in Anopheles arabiensis assessed as percentage of mortality in 10 day survivorship fed with compound treated bovine blood at 73 mg observed for 24 weeks relative to control; type: functional, organism-based
Anopheles sp. [14] = assay: Insecticidal in Anopheles sp. assessed as mortality rate fed with blood of compound treated human at 200 microg/kg administered once caught on day 1 after mass drug administration observed within 5 days relative to control; type: functional, organism-based; conditions: dose 200.0 µg/kg, time 5.0 day
Anopheles sp. [15] = assay: Insecticidal in Anopheles sp. infected with Plasmodium falciparum gametocytes assessed as reduction in fecundity fed with compound treated bovine blood at 200 microg/kg feeding at 21 days after injection relative to control; type: functional, organism-based; set-up: scale not given: the % may be the effect or the level left; conditions: dose 200.0 µg/kg
Aedes aegypti [16] = assay: Insecticidal in Aedes aegypti assessed as mortality rate fed with blood of compound treated mouse at 83 mg/kg, sc before 12 hrs and observed after 36 hrs relative to control; type: functional, organism-based
Anopheles arabiensis [17] = assay: Insecticidal in Anopheles arabiensis assessed as reduction in number of eggs fed with compound treated bovine blood at 200 microg/kg relative to control; type: functional, organism-based; set-up: scale not given: the % may be the effect or the level left; conditions: dose 200.0 µg/kg
Anopheles sp. [18] = assay: Insecticidal in Anopheles sp. assessed as lethal concentration membrane-fed with compound treated pig blood; type: functional
Anopheles sp. [19] = assay: Insecticidal in Anopheles sp. assessed as lethal concentration membrane-fed with compound treated blood observed after 4 days; type: functional, organism-based; conditions: time 4.0 day
Anopheles arabiensis [20] = assay: Insecticidal in Anopheles arabiensis assessed as mortality fed with compound treated bovine blood at 200 microg/kg observed within 2 to 4 days after blood feeding relative to control; type: functional, organism-based; conditions: dose 200.0 µg/kg, time 2-4 day
Anopheles sp. [21] = assay: Insecticidal in Anopheles sp. infected with Plasmodium vivax assessed as percentage of survival midgut fed with blood isolated from compound treated parasite-infected human at 40 ng/ml observed after 7 days relative to control; type: functional, organism-based; conditions: time 7.0 day
Anopheles darlingi = assay: Insecticidal in Anopheles darlingi infected with Plasmodium vivax assessed as lethal concentration fed with compound treated human blood observed for 7 days; type: functional, organism-based; conditions: time 7.0 day
Aedes aegypti [22] = assay: Insecticidal in Aedes aegypti assessed as reduction in survivorship fed with blood of compound treated human at 150 microg/kg administered once; type: functional, organism-based; conditions: dose 150.0 µg/kg
Anopheles sp. [23] = assay: Insecticidal in Anopheles sp. assessed as reduction in survival rate fed with compound treated human blood at 400 microg/kg observed in 48 hrs relative to control; type: functional, organism-based; conditions: dose 400.0 µg/kg
Anopheles gambiae [24] = assay: Insecticidal in Anopheles gambiae assessed as probability of survival per day fed with blood of compound treated human at 150 microg/kg observed for 6 days relative to control; type: functional, organism-based; conditions: dose 150.0 µg/kg, time 6.0 day
Anopheles sp. [25] = assay: Insecticidal in Anopheles sp. assessed as mortality fed with compound treated human blood at 400 microg/kg in the presence of 6 mg/kg diethylcarbamazine citrate observed in 24 hrs relative to control; type: functional, organism-based; conditions: dose 400.0 µg/kg
Anopheles sp. [26] = assay: Insecticidal in Anopheles sp. infected with Plasmodium vivax assessed as mortality rate midgut fed with blood isolated from compound treated parasite-infected human observed after 7 days relative to control; type: functional, organism-based; conditions: time 7.0 day
Culex quinquefasciatus [27] = assay: Insecticidal in Culex quinquefasciatus assessed as mortality rate fed with blood of compound treated mouse at […], sc before 12 hrs and observed after 36 hrs relative to control; type: functional, organism-based
Plasmodium berghei = assay: In vivo antimalarial activity against blood stage Plasmodium berghei transfected with GFP infected in mouse assessed as increase in mouse survival days at 0.5 mg/kg for 3 days; type: functional, organism-based; conditions: time 3.0 day
Anopheles arabiensis [28] = assay: Insecticidal in Anopheles arabiensis assessed as reduction in survival rate fed with blood of compound treated human observed for […] relative to control; type: functional, organism-based
Aedes aegypti [29] = assay: Insecticidal in Aedes aegypti assessed as mortality rate membrane-fed with compound treated human blood at 10 to 100 microg/mL observed within 7 days relative to control; type: functional, organism-based; conditions: dose 10-100 µg/ml, time 7.0 day
Anopheles sp. [30] = assay: Insecticidal in Anopheles sp. assessed as egg hatching rate fed with compound treated human blood administered as a single dose at 10 microg/ml fed at 4 hrs post treatment; type: functional, organism-based; conditions: dose 10.0 µg/ml
Anopheles sp. [31] = assay: Insecticidal in Anopheles sp. assessed as mortality fed with compound treated human blood at 400 microg/kg in the presence of 6 mg/kg diethylcarbamazine citrate died in 9 days relative to control; type: functional, organism-based; conditions: dose 400.0 µg/kg, time 9.0 day
Anopheles gambiae [32] = assay: Insecticidal in Anopheles gambiae assessed as mean survival fed with blood of compound treated human at 200 microg/kg relative to control; type: functional, organism-based; conditions: dose 200.0 µg/kg
Plasmodium vivax [33] = assay: Antimalarial activity against Plasmodium vivax assessed as sporogony lethality in Anopheles darlingi mosquito fed with blood isolated from compound treated parasite-infected human observed after 7 days by measuring reduction in parasite prevalence level at Lc50 relative to control; type: functional, organism-based; set-up: scale not given: the % may be the effect or the level left; conditions: time 7.0 day

Question: For IVERMECTIN, which mortality (Anopheles sp. [1]) is on record?
Answer: The mortality was 100%.

Question: What about the LC50 (Anopheles arabiensis [2]) of the same sequence?
Answer: Its LC50 is 7.79 ppb.

Question: What about the LC50 (Anopheles gambiae [3]) of the same sequence?
Answer: Its LC50 is 19.8 ppb.

Question: And the LC50 (Anopheles stephensi [4])?
Answer: The LC50 was 0.007 µg/mL.

Question: What about the mortality (Anopheles arabiensis [5]) of the same sequence?
Answer: The mortality was 50%.

Question: And the inhibition (Plasmodium vivax [6])?
Answer: The inhibition was 99.9%.

Question: What about the LC50 (Anopheles sp. [7]) of the same sequence?
Answer: Its LC50 is 0.0576 µg/mL.

Question: What about the mortality (Anopheles gambiae [8]) of the same sequence?
Answer: The mortality was 50%.

Question: And the Cp (Anopheles sp. [9])?
Answer: The Cp was 15.3 ng/mL.

Question: What about the mortality (Anopheles stephensi [10]) of the same sequence?
Answer: The mortality was 85%.

Question: What about the mortality (Culex quinquefasciatus [11]) of the same sequence?
Answer: The mortality was 100%.

Question: And the mortality (Anopheles sp. [12])?
Answer: Its mortality is 60%.

Question: And the mortality (Aedes albopictus)?
Answer: Its mortality is 100%.

Question: And the mortality (Anopheles arabiensis [13])?
Answer: Its mortality is 90%.

Question: And the mortality (Anopheles sp. [14])?
Answer: The mortality was 75%.

Question: And the Activity (Anopheles sp. [15])?
Answer: The Activity was 33%.

Question: What about the mortality (Aedes aegypti [16]) of the same sequence?
Answer: The mortality was 60%.

Question: And the Activity (Anopheles arabiensis [17])?
Answer: Its Activity is 82%.

Question: What about the LC50 (Anopheles sp. [18]) of the same sequence?
Answer: The LC50 was 0.0178 µg/mL.

Question: And the LC50 (Anopheles sp. [19])?
Answer: The LC50 was 1.47 µg/mL.

Question: And the mortality (Anopheles arabiensis [20])?
Answer: Its mortality is 80%.

Question: What about the Survival (Anopheles sp. [21]) of the same sequence?
Answer: The Survival was 22%.

Question: What about the LC5 (Anopheles darlingi) of the same sequence?
Answer: The LC5 was 14.8 ng/mL.

Question: And the LC25 (Anopheles darlingi)?
Answer: Its LC25 is 0.0278 µg/mL.

Question: And the LC50 (Anopheles darlingi)?
Answer: The LC50 was 0.0432 µg/mL.

Question: And the LC50 (Aedes aegypti [22])?
Answer: The LC50 was 0.601 µg/mL.

Question: What about the Survival (Anopheles sp. [23]) of the same sequence?
Answer: Its Survival is 31%.

Question: And the Survival (Anopheles gambiae [24])?
Answer: Its Survival is > 10%.

Question: What about the mortality (Anopheles sp. [25]) of the same sequence?
Answer: The mortality was 70%.

Question: What about the mortality (Anopheles sp. [26]) of the same sequence?
Answer: The mortality was 97.1%.

Question: And the mortality (Culex quinquefasciatus [27])?
Answer: Its mortality is 50%.

Question: What about the Survival (Plasmodium berghei) of the same sequence?
Answer: The Survival was 23 days.

Question: And the Survival (Anopheles arabiensis [28])?
Answer: Its Survival is 50%.

Question: What about the mortality (Aedes aegypti [29]) of the same sequence?
Answer: The mortality was 100%.

Question: And the Activity (Anopheles sp. [30])?
Answer: The Activity was 74.8.

Question: And the mortality (Anopheles sp. [31])?
Answer: The mortality was 100%.

Question: And the Survival (Anopheles gambiae [32])?
Answer: Its Survival is 2.3 days.

Question: What about the Activity (Plasmodium vivax [33]) of the same sequence?
Answer: Its Activity is 22.6% and 17.1%.
